Data on 3 molecules can be found in ChEMBL document CHEMBL3393013, “Structural Insights for the Optimization of Dihydropyrimidin-2(1H)-one Based mPGES-1 Inhibitors” (ACS Med Chem Lett, 2015).

Molecules are shown by their SMILES.

The assay addresses T1, Prostaglandin E synthase (Homo sapiens, UniProt O14684).
T1 sequence (O14684 whole entry): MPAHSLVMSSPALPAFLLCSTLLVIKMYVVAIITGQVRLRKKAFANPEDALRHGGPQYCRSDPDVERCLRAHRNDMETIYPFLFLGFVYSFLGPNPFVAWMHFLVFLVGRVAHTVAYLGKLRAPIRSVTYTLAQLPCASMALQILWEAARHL
Description: Inhibition of mPGES-1 in interleukin-1beta-stimulated human A549 cells microsomal membranes assessed as reduction in PGE2 formation incubated for 15 mins in presence of PGH2 and glutathione by RP-HPLC method. Type of assay: cell-based.
By IC50 is commonly meant the concentration that gives 50% inhibition. For the molecule `CC1=C(C(=O)c2cc(Br)ccc2O)C(c2ccc(-c3cccc(C(F)(F)F)c3)o2)NC(=O)N1` (stereo not drawn), the IC50 worked out at 5600 nM.
Under `CC1=C(C(=O)OCc2ccccc2)C(c2ccc(-c3cccc(C(F)(F)F)c3)o2)NC(=O)N1` (stereo not drawn) stands 1400 nM.
Regarding `CC1=C(C(=O)OCc2ccccc2)C(c2ccc(-c3cccc(C(F)(F)F)c3)o2)NC(=O)N1CCC(=O)O` (stereo not drawn), the IC50 is 410 nM.
